Results published in patent publication US8618095B2 (Rigel Pharmaceuticals, Inc., priority 2010, dated 2013).
Counter-ions that a name gives are not always drawn.

These compounds were tested on Human mast cells (CHMC) (assay: LD Tryptase release assay in CHMC (mast cell activation induced by FcγR cross-linking)). Details: Homo sapiens, Mast cell, anti-IgG stimulation, activity of tryptase released upon degranulation.
Assay type: cell-based
Method: Compounds were assayed for inhibition of mast cell activation induced by FcγR cross-linking by measuring the activity of tryptase released upon degranulation as follows:
Human mast cells were cultured and differentiated from […] progenitor cell as described in U.S. Patent Publication No. 2005-234049, incorporated herein by reference. For example, 65 μL of various concentrations of the compound to be assayed were prepared in MT (137 mM NaCl, 2.7 mM KCl, 1.8 mM CaCl2, 1.0 mM MgCl2, 5.6 mM Glucose, 20 mM Hepes (pH 7.4), 0.1% Bovine Serum Albumin, (Sigma A4503)) containing 2% MeOH and 1% DMSO, or control buffer were added to duplicate 96-well V-bottom plates. Pelleted and re-suspended (in warm MT) CHMC cells (65 μL) were added to each 96-well plate, mixed and incubated for 1 hour at 37° C. 25 μl of 6× anti-IgG Rabbit anti-human IgG, Affinity purified (Bethyl Laboratories Cat No. A80-105A3) final concentration 1 μg/mL, was added to the test wells. MT (25 μL) was added to control wells. After a 60-minute incubation at 37° C., cells and cell debris were pelleted by centrifugation at 1000 rpm for 10 min and tryptase and leukotriene C4 levels were measured.
To measure tryptase levels, 25 μL of supernatant from each well was transferred to a fresh 96-well black bottom plate, to which 100 μL of fresh tryptase substrate solution [(Z-Ala-Lys-Arg-AMC2TFA; Enzyme Systems Products, #AMC-246)] 1:2000 in tryptase assay buffer [0.1 M Hepes (pH 7.5), 10% w/v Glycerol, 10 μM Heparin (Sigma H-4898) 0.01% NaN3] was added. After 30 minute incubation at room temperature, the optical density of the plates is measured at 355 nm/460 nm on a spectrophotometric plate reader. Table 1 provides the IC50 values.
Compounds of the disclosure were assayed for their ability to inhibit mast cell activation induced by FcγR cross-linking by measuring the activity of tryptase released upon degranulation. The IC50 values for the LD Tryptase assay are presented in Table 2, in which “0” is >100 μM; “A” is 1-100 μM; “B” is 0.5-1 μM; “C” is 0.1-0.5 μM; and “D” is less than 0.1 μM: […]

| SMILES | IC50 |
| --- | --- |
| Cc1ccc(Nc2ncc(F)c(Nc3ccc4c(n3)NC(=O)C(C)(C)O4)n2)cn1 [Compound 76, N4-(2,2-dimethyl-3,4-dihydro-3-oxo-2H-pyrido[3,2-b][1,4]oxazin-6-yl)-5-fluoro-N2-[6-methylpyridin-3-yl]-2,4-pyrimidinediamine] | 100 to 500 nM |
| CN(C)C[C@@H]1CN(c2ccc(Nc3ncc(F)c(Nc4ccc5c(n4)NC(=O)CO5)n3)cc2)CCO1 (racemic) [Compound 121, rac-N4-(3,4-dihydro-3-oxo-2H-pyrido[3,2-b][1,4]oxazin-6-yl)-N2-[4-((2-dimethylaminomethyl)morpholino)phenyl]-5-fluoro-2,4-pyrimidinediamine] | < 100 nM |
| C[C@H]1CN(c2ccc(Nc3ncc(F)c(Nc4ccc5c(n4)NC(=O)C(C)(C)O5)n3)cn2)CCO1 [Compound 94, N4-(2,2-dimethyl-3,4-dihydro-3-oxo-2H-pyrido[3,2-b][1,4]oxazin-6-yl)-5-fluoro-N2-[6-((2S)-2-methylmorpholino)pyridin-3-yl]-2,4-pyrimidinediamine] | 100 to 500 nM |
| CC1(C)Oc2ccc(Nc3nc(Nc4ccc(N5CCO[C@@H](CF)C5)nc4)ncc3F)nc2NC1=O [Compound 145, N4-(2,2-dimethyl-3,4-dihydro-3-oxo-2H-pyrido[3,2-b][1,4]oxazin-6-yl)-5-fluoro-N2-[6-((2R)-2-(fluoromethyl)morpholino)pyridin-3-yl]-2,4-pyrimidinediamine] | < 100 nM |
| CC1(C)Oc2ccc(Nc3nc(Nc4ccc(N5CCC6(CCOC6)CC5)nc4)ncc3F)nc2NC1=O [Compound 144, N4-(2,2-dimethyl-3,4-dihydro-3-oxo-2H-pyrido[3,2-b][1,4]oxazin-6-yl)-5-fluoro-N2-[6-(2-oxa-8-azaspiro[4.5]decan-8-yl)pyridin-3-yl]-2,4-pyrimidinediamine] | 100 to 500 nM |
| CC1(C)Oc2ccc(Nc3nc(Nc4ccc(N5CCOCC5)c(OC(F)F)c4)ncc3F)nc2NC1=O [Compound 25, N4-(2,2-dimethyl-3,4-dihydro-3-oxo-2H-pyrido[3,2-b][1,4]oxazin-6-yl)-5-fluoro-N2-[3-difluoromethoxy-4-morpholinophenyl]-2,4-pyrimidinediamine] | 1000 to 100000 nM |
| CN(C[C@@H]1CCCO1)c1ccc(Nc2ncc(F)c(Nc3ccc4c(n3)NC(=O)CO4)n2)cn1 [Compound 108, N4-(3,4-dihydro-3-oxo-2H-pyrido[3,2-b][1,4]oxazin-6-yl)-5-fluoro-N2-[6-(((S)-methyl(tetrahydrofuran-2-yl)methyl)amino)pyridin-3-yl]-2,4-pyrimidinediamine] | 100 to 500 nM |
| CC1(C)Oc2ccc(Nc3nc(Nc4ccc(N5CCS(=O)(=O)CC5)cc4)ncc3F)nc2NC1=O [Compound 149, N4-(2,2-dimethyl-3,4-dihydro-3-oxo-2H-pyrido[3,2-b][1,4]oxazin-6-yl)-5-fluoro-N2-[4-(1,1-dioxidothiomorpholin-4-yl)phenyl]-2,4-pyrimidinediamine] | < 100 nM |
| [2H]C1([2H])OC([2H])([2H])C([2H])([2H])N(c2ccc(Nc3ncc(F)c(Nc4ccc5c(n4)NC(=O)C(C)(C)O5)n3)cc2)C1([2H])[2H] [Compound 131, N4-(2,2-dimethyl-3,4-dihydro-3-oxo-2H-pyrido[3,2-b][1,4]oxazin-6-yl)-5-fluoro-N2-[4-(2,2,3,3,5,5,6,6-d8-morpholino)phenyl]-2,4-pyrimidinediamine] | < 100 nM |
| CC1(C)CN(c2ccc(Nc3ncc(F)c(Nc4ccc5c(n4)NC(=O)C(C)(C)O5)n3)cn2)CCO1 [Compound 8, N4-(2,2-dimethyl-3,4-dihydro-3-oxo-2H-pyrido[3,2-b][1,4]oxazin-6-yl)-5-fluoro-N2-[6-(2,2-dimethylmorpholino)pyridin-3-yl]-2,4-pyrimidinediamine] | 100 to 500 nM |
| C[C@H]1COCCN1c1ccc(Nc2ncc(F)c(Nc3ccc4c(n3)NC(=O)C(C)(C)O4)n2)cc1 [Compound 120, N4-(2,2-dimethyl-3,4-dihydro-3-oxo-2H-pyrido[3,2-b][1,4]oxazin-6-yl)-5-fluoro-N2-[4-((3S)-3-methylmorpholino)phenyl]-2,4-pyrimidinediamine] | 100 to 500 nM |
| CC1(C)Oc2ccc(Nc3nc(Nc4ccc(C5CCOCC5)nc4)ncc3F)nc2NC1=O [Compound 22, N4-(2,2-dimethyl-3,4-dihydro-3-oxo-2H-pyrido[3,2-b][1,4]oxazin-6-yl)-5-fluoro-N2-[6-tetrahydropyranopyridin-3-yl]-2,4-pyrimidinediamine] | 100 to 500 nM |
| O=C1COc2ccc(Nc3nc(Nc4ccc(N5CC[C@H](O)C5)nc4)ncc3F)nc2N1 [Compound 63, N4-(3,4-dihydro-3-oxo-2H-pyrido[3,2-b][1,4]oxazin-6-yl)-5-fluoro-N2-[6-((3S)-3-hydroxypyrrolidin-1-yl)pyridin-3-yl]-2,4-pyrimidinediamine] | 100 to 500 nM |
| C[C@H]1CN(c2ccc(Nc3ncc(F)c(Nc4ccc5c(n4)NC(=O)CO5)n3)cn2)CCO1 [Compound 93, N4-(3,4-dihydro-3-oxo-2H-pyrido[3,2-b][1,4]oxazin-6-yl)-5-fluoro-N2-[6-((2S)-2-methylmorpholino)pyridin-3-yl]-2,4-pyrimidinediamine] | 100 to 500 nM |
| COc1cc(Nc2ncc(F)c(Nc3ccc4c(n3)NC(=O)CO4)n2)ccc1N1CCOCC1 [Compound 33, N4-(3,4-dihydro-3-oxo-2H-pyrido[3,2-b][1,4]oxazin-6-yl)-5-fluoro-N2-[3-methoxy-4-morpholinophenyl]-2,4-pyrimidinediamine] | < 100 nM |
| Cc1cc(Nc2ncc(F)c(Nc3ccc4c(n3)NC(=O)C(C)(C)O4)n2)cnc1N1CCOCC1 [Compound 13, N4-(2,2-dimethyl-3,4-dihydro-3-oxo-2H-pyrido[3,2-b][1,4]oxazin-6-yl)-5-fluoro-N2-[5-methyl-6-morpholinopyridin-3-yl]-2,4-pyrimidinediamine] | < 100 nM |
| CC1(C)Oc2ccc(Nc3nc(Nc4ccc(N5CCCOCC5)cc4)ncc3F)nc2NC1=O [Compound 43, N4-(2,2-dimethyl-3,4-dihydro-3-oxo-2H-pyrido[3,2-b][1,4]oxazin-6-yl)-5-fluoro-N2-[4-homomorpholinophenyl]-2,4-pyrimidinediamine] | 100 to 500 nM |
| O=C1COc2ccc(Nc3nc(Nc4ccc(N5C[C@@H]6C[C@H]5CO6)cc4)ncc3F)nc2N1 [Compound 37, N4-(3,4-dihydro-3-oxo-2H-pyrido[3,2-b][1,4]oxazin-6-yl)-5-fluoro-N2-[4-((1S,4S)-5-oxa-2-aza-bicyclo[2.2.1]heptan-2-yl)phenyl]-2,4-pyrimidinediamine] | 100 to 500 nM |
| CC1(C)Oc2ccc(Nc3nc(Nc4ccc(N5CCOCC5)cc4)ncc3F)nc2NC1=O [Compound 1, N4-(2,2-dimethyl-3,4-dihydro-3-oxo-2H-pyrido[3,2-b][1,4]oxazin-6-yl)-5-fluoro-N2-(4-morpholinophenyl)-2,4-pyrimidinediamine] | < 100 nM |
| O=C1COc2ccc(Nc3nc(Nc4ccc(N5CCOCC5=O)cc4)ncc3F)nc2N1 [Compound 39] | 100 to 500 nM |
| C[C@H]1CN(c2ccc(Nc3ncc(F)c(Nc4ccc5c(n4)NC(=O)CO5)n3)cc2)CCO1 [Compound 80] | < 100 nM |
| COC1CCN(c2ccc(Nc3ncc(F)c(Nc4ccc5c(n4)NC(=O)C(C)(C)O5)n3)cn2)C1 (stereo in doubt) [Compound 56, N4-(2,2-dimethyl-3,4-dihydro-3-oxo-2H-pyrido[3,2-b][1,4]oxazin-6-yl)-5-fluoro-N2-[6-((3R)-3-methoxypyrrolidin-1-yl)pyridin-3-yl]-2,4-pyrimidinediamine] | 100 to 500 nM |
| [2H]C1([2H])OC([2H])([2H])C([2H])([2H])N(c2ccc(Nc3ncc(F)c(Nc4ccc5c(n4)NC(=O)CO5)n3)cc2)C1([2H])[2H] [Compound 130, N4-(2,2-dimethyl-3,4-dihydro-3-oxo-2H-pyrido[3,2-b][1,4]oxazin-6-yl)-5-fluoro-N2-[4-(2,2,3,3,5,5,6,6-d8-morpholino)phenyl]-2,4-pyrimidinediamine] | < 100 nM |
| CN1CCN(c2ccc(Nc3ncc(F)c(Nc4ccc5c(n4)NC(=O)CO5)n3)cn2)CC1 [Compound 19, N4-(3,4-dihydro-3-oxo-2H-pyrido[3,2-b][1,4]oxazin-6-yl)-5-fluoro-N2-[6-(4-methylpiperazin-1-yl)pyridin-3-yl]-2,4-pyrimidinediamine] | 1000 to 100000 nM |

Same assay, conditions: anti-IgG stimulation, activity of tryptase released upon degranulation

| SMILES | IC50 |
| --- | --- |
| O=C1COc2ccc(Nc3nc(Nc4ccc(N5CCOCC5)cc4)ncc3F)nc2N1COP(=O)(O)O [Compound 114, N4-(3,4-dihydro-4-[(dihydrogenphosphonoxy)methyl]-3-oxo-2H-pyrido[3,2-b][1,4]oxazin-6-yl)-5-fluoro-N2-(4-morpholinophenyl)-2,4-pyrimidinediamine disodium salt] | 1000 to 100000 nM |
